From patent US11484535B2, “Liquid formulations of (S)-N-(5-((R)-2-(2,5-difluorophenyl)-pyrrolidin-1-yl)-pyrazolo[1,5-a] pyrimidin-3-yl)-3-hydroxypyrrolidine-1-carboxamide” (Loxo Oncology, Inc., priority 2016, dated 2022)
Counter-ions that a name gives are not always drawn.

Columns and labels:
[1] = Accelerated stability study in an LDPE bag at 40° C./75% RH for five weeks; type: physicochemical
[2] = Dynamic vapor sorption (DVS) isotherm, hygroscopicity; type: physicochemical
Procedure: For the DVS measurement a sample of crystalline form (I-HS) was cycled through changing humidity conditions to determine its hygroscopicity. The sample was analyzed using a Surface Measurement System DVS-1 Dynamic Vapor Sorption System. […] Data was collected in 1 minute intervals. Nitrogen was used as the carrier gas. […] After completion of the sorption cycle, the sample was dried using the same procedure, but all the way down to 0% RH and finally taken back to the starting point of 20% RH. The weight change during the sorption/desorption cycles were plotted, allowing for the hygroscopic nature of the sample to be determined.
A small increase in mass of about 1.7% was observed between 0% and 90% RH during the sorption cycle.

[3] = test system: Infantile Fibrosarcoma with NTRK3-ETV6 Fusion; test: Phase 1 pediatric dose-escalation study (NCT02637687), oral liquid formulation of Compound I-HS, case of one patient

Compound	change in chemical impurity levels [1]	hygroscopicity by DVS ([2]; 20-90% RH ramp, 10% increments)	change in crystalline form during DVS (XRPD post vs pre DVS) ([2]; XRPD after DVS analysis)	reduction in the size and enhancement of the mass from baseline ([3]; MR of the brain and neck, end of cycle 1 (day 28), BID dosing, patient)	response on repeat scans ([3]; end of Cycle 2, MR of the brain and neck)	adverse events related to the compound ([3]; first two cycles (28-day cycles))
O=C(Nc1cnn2ccc(N3CCC[C@@H]3c3cc(F)ccc3F)nc12)N1CC[C@H](O)C1.O=S(=O)(O)O [AM(HS), (S)—N-(5-((R)-2-(2,5-difluorophenyl)-pyrrolidin-1-yl)-pyrazolo[1,5-a]pyrimidin-3-yl)-3-hydroxypyrrolidine-1-carboxamide hydrogen sulfate]	neither the AM(HS) or crystalline form (I-HS) exhibited a significant changes in chemical impurity levels					
O=C(Nc1cnn2ccc(N3CCC[C@@H]3c3cc(F)ccc3F)nc12)N1CC[C@H](O)C1 [Compound I-HS, (S)—N-(5-((R)-2-(2,5-difluorophenyl)-pyrrolidin-1-yl)-pyrazolo[1,5-a]pyrimidin-3-yl)-3-hydroxypyrrolidine-1-carboxamide hydrogen sulfate]	neither the AM(HS) or crystalline form (I-HS) exhibited a significant changes in chemical impurity levels	non-hygroscopic	no change	more than 90%	partial response	no adverse events
